The values that follow come from article PMC4768138, “Biliverdin targets enolase and eukaryotic initiation factor 2 (eIF2α) to reduce the growth of intraerythrocytic development of the malaria parasite Plasmodium falciparum” (Scientific Reports, 2016).

For series [1], the target named is T1, P. falciparum enolase (Pf enolase) (Plasmodium falciparum, UniProt Q8IJN7).
T1 construct: gene ENO; recombinant full-length Plasmodium enolase, expressed in E. coli, His-tag-thioredoxin removed by TEV protease
The experiment in a line: ITC with purified enzyme (n = […], ΔG −[…] Kcal/mol, Kd not given); IC50 from enzyme inhibition assay. The format is biochemical.

Series [2] concerns the molecule itself. Nature of the series: SEC; Superdex 200 16/60, 20 mM Tris-HCl pH 8.0, 200 mM NaCl; single symmetric peak of the purified recombinant protein.

As a reminder, the IC50 is the point on the concentration scale where inhibition reaches its midpoint. A higher IC50 goes with weaker potency in that assay. As for `C=CC1=C(C)/C(=C/C2=NC(=C\c3[nH]c(/C=C4\NC(=O)C(C)=C4C=C)c(C)c3CCC(=O)O)/C(CCC(=O)O)=C2C)NC1=O` [BV, biliverdin], in series [1], half-maximal inhibition (IC50) required 27 ± 4 µM.

B1: Plasmodium falciparum enolase (enzyme, UniProt Q8IJN7 1-446, looked up)
chain: MAHVITRINAREILDSRGNPTVEVDLETNLGIFRAAVPSGASTGIYEALELRDNDKSRYLGKGVQKAIKNINEIIAPKLIGMNCTEQKKIDNLMVEELDGSKNEWGWSKSKLGANAILAISMAVCRAGAAANKVSLYKYLAQLAGKKSDQMVLPVPCLNVINGGSHAGNKLSFQEFMIVPVGAPSFKEALRYGAEVYHTLKSEIKKKYGIDATNVGDEGGFAPNILNANEALDLLVTAIKSAGYEGKVKIAMDVAASEFYNSENKTYDLDFKTPNNDKSLVKTGAQLVDLYIDLVKKYPIVSIEDPFDQDDWENYAKLTAAIGKDVQIVGDDLLVTNPTRITKALEKNACNALLLKVNQIGSITEAIEACLLSQKNNWGVMVSHRSGETEDVFIADLVVALRTGQIKTGAPCRSERNAKYNQLLRIEESLGNNAVFAGEKFRLQLN
notes: Enolase of Plasmodium falciparum, expressed from the P. falciparum enolase-pETTrx-1a plasmid; the abstract calls it recombinant full-length Plasmodium enolase; The His-tag-thioredoxin was removed by TEV protease; also called Pf enolase; P. falciparum enolase; source: E. coli Rosetta (DE3), purified (HisTrap, TEV digestion, second HisTrap, Superdex 200)
In general, stoichiometry N refers to a count of units in the complex or per binding partner. Regarding B1, in series [2], the “stoichiometry N” value worked out at 2.
